Where a name gives a salt, the structure may show the parent alone.
The molecules below were run on MDA-MB-231 cells (assay: Extracellular lactate production inhibition after 4 h, MDA-MB-231). Settings: Homo sapiens, MDA-MB-231.

Row | Structure (SMILES) | IC50 [nM]
1 | COC(=O)c1ccc(C#Cc2ccccc2NS(=O)(=O)c2cnn(-c3ccccc3)c2)cn1 [Compound 136, methyl 5-{2-[2-(1-phenyl-1H-pyrazole-4-sulfonamido)phenyl]ethynyl}pyridine-2-carboxylate] | 1000 to 100000
2 | COc1cc(C(=O)O)ncc1C#Cc1ccccc1NS(=O)(=O)c1ccc(OC)c2cccnc12 [Compound 169, 4-methoxy-5-{2-[2-(5-methoxyquinoline-8-sulfonamido)phenyl]ethynyl}pyridine-2-carboxylic acid] | 10 to 100
3 | COc1ccc(S(=O)(=O)Nc2ccc(C)cc2C#Cc2ccc(C(=O)O)nc2)c2ncccc12 [Compound 383, 5-[2-(5-Methoxy-quinoline-8-sulfonylamino)-5-methyl-phenylethynyl]-pyridine-2-carboxylic acid] | 1 to 10
4 | COc1cc(-c2ccccc2)ccc1CN(C=O)c1ccccc1C#Cc1ccc(C(=O)O)nc1 [Compound 213, 5-(2-{2-[N-({3-methoxy-[1,1′-biphenyl]-4-yl}methyl)formamido]phenyl}-ethynyl)pyridine-2-carboxylic acid] | 10 to 100
5 | Cc1nc(C(=O)O)ccc1C#Cc1ccccc1NS(=O)(=O)c1cccc2cccnc12 [Compound 60, 6-methyl-5-{2-[2-(quinoline-8-sulfonamido)phenyl]ethynyl}pyridine-2-carboxylic acid] | 1000 to 100000
6 | CN(c1ccccc1C#Cc1ccc(C(=O)O)cc1)S(=O)(=O)c1ccc2ccccc2c1 [Compound 4, 4-{2-[2-(N-methylnaphthalene-2-sulfonamido)phenyl]ethynyl}benzoic acid] | 100 to 1000
7 | NCCOCCOCCOc1ccc(C#Cc2ccc(C(=O)O)nc2)c(NS(=O)(=O)c2cccc3cccnc23)c1 [Compound 332, 5-[4-{2-[2-(2-Amino-ethoxy)-ethoxy]-ethoxy}-2-(quinoline-8-sulfonylamino)-phenylethynyl]-pyridine-2-carboxylic acid] | 1000 to 100000
8 | O=C(O)c1ccc(C#Cc2ccccc2NS(=O)(=O)c2ccc3c(c2)CCCC3)cc1 [Compound 7, 4-{2-[2-(5,6,7,8-tetrahydronaphthalene-2-sulfonamido)phenyl]ethynyl}benzoic acid] | 100 to 1000
9 | NCCOCCOCCOc1ccc(NS(=O)(=O)c2cccc3cccnc23)c(C#Cc2ccc(C(=O)O)nc2)c1 [Compound 333, 5-[5-{2-[2-(2-Amino-ethoxy)-ethoxy]-ethoxy}-2-(quinoline-8-sulfonylamino)-phenylethynyl]-pyridine-2-carboxylic acid] | 1000 to 100000
10 | CC1CCN(S(=O)(=O)Nc2ccccc2C#Cc2ccc(C(=O)O)nc2)C2CCCCC12 (centres unmarked) [Compound 228, 5-[2-(2-{[(4-methyl-decahydroquinolin-1-yl)sulfonyl]amino}phenyl)ethynyl]pyridine-2-carboxylic acid] | 10 to 100
11 | O=C(O)c1ccc(C#Cc2ccccc2NS(=O)(=O)c2cc3cc(Cl)ccc3s2)cc1 [Compound 281, 4-{2-[2-(5-chloro-1-benzothiophene-2-sulfonamido)phenyl]ethynyl}benzoic acid] | 100 to 1000
12 | O=C(O)c1ccc(C#Cc2ccccc2NS(=O)(=O)c2ccc3c(c2)CCO3)cc1 [Compound 3, 4-{2-[2-(2,3-dihydro-1-benzofuran-5-sulfonamido)phenyl]ethynyl}benzoic acid] | 1000 to 100000
13 | COc1ccc(S(=O)(=O)Nc2ccccc2C#Cc2cnc(C(=O)O)c(N)c2)c(C)c1C [Compound 402, 3-amino-5-{2-[2-(4-methoxy-2,3-dimethylbenzenesulfonamido)phenyl]ethynyl}pyridine-2-carboxylic acid] | 10 to 100
14 | O=C(O)c1ccc(C#Cc2ccccc2NS(=O)(=O)c2cnc(Cl)c(Br)c2)cc1 [Compound 34, 4-{2-[2-(5-bromo-6-chloropyridine-3-sulfonamido)phenyl]ethynyl}benzoic acid] | 1000 to 100000
15 | CC(=O)N(Cc1ccccc1C#Cc1ccc(C(=O)O)nc1)c1cccc2ccccc12 [Compound 161, 5-[2-(2-{[N-(naphthalen-1-yl)acetamido]-methyl}phenyl)ethynyl]pyridine-2-carboxylic acid] | 100 to 1000
16 | COc1ccc(S(=O)(=O)Nc2ccccc2C#Cc2ccc(C(=O)O)c(F)c2)c2ccccc12 [Compound 45, 2-fluoro-4-{2-[2-(4-methoxynaphthalene-1-sulfonamido)phenyl]ethynyl}benzoic acid] | 100 to 1000
17 | Cc1cc(C(=O)O)ncc1C#Cc1ccccc1NS(=O)(=O)c1ccc2c(c1)Cc1ccccc1-2 [Compound 119, 5-{2-[2-(9H-fluorene-2-sulfonamido)phenyl]ethynyl}-4-methylpyridine-2-carboxylic acid] | 100 to 1000
18 | COc1ccc(NS(=O)(=O)c2ccc(OC)c3cccnc23)c(C#Cc2ccc(C(=O)O)nc2)c1 [Compound 397, 5-[5-Methoxy-2-(5-methoxy-quinoline-8-sulfonylamino)-phenylethynyl]-pyridine-2-carboxylic acid] | 10 to 100
19 | COc1ccc(S(=O)(=O)Nc2ccccc2C#Cc2ccc(C(=O)N3CCCC3)nc2)c2ncccc12 [Compound 386, 5-Methoxy-quinoline-8-sulfonic acid {2-[6-(pyrrolidine-1-carbonyl)-pyridin-3-ylethynyl]-phenyl}-amide] | 1000 to 100000

Row | Structure (SMILES) | IC50 [nM]
20 | COc1ccccc1S(C)(=O)=Nc1ccccc1C#Cc1ccc(C(=O)O)nc1 (centres unmarked) [Compound 433, 5-[2-(2-{[(2-methoxyphenyl)(methyl)oxo-λ6-sulfanylidene]amino}phenyl)ethynyl] pyridine-2-carboxylic acid] | 1000 to 100000
21 | CCc1cc(C#Cc2ccccc2NS(=O)(=O)c2c(CC)ccc3cccnc23)cnc1C(=O)O [Compound 375, 3-Ethyl-5-[2-(7-ethyl-quinoline-8-sulfonylamino)-phenylethynyl]-pyridine-2-carboxylic acid] | 1 to 10
22 | COc1ccc(S(=O)(=O)Nc2ccc(Cl)cc2C#Cc2ccc(C(=O)O)nc2)cc1 [Compound 390, 5-[5-Chloro-2-(4-methoxy-benzenesulfonylamino)-phenylethynyl]-pyridine-2-carboxylic acid] | 100 to 1000
23 | O=C(O)c1ccc(C#Cc2ccccc2NS(=O)(=O)c2cccc3nccnc23)cc1 [Compound 66, 4-{2-[2-(quinoxaline-5-sulfonamido)phenyl]ethynyl}benzoic acid] | 1000 to 100000
24 | O=C(O)c1ccc(C#Cc2ccccc2NS(=O)(=O)c2ccc(OC(F)(F)F)c3cccnc23)cn1 [Compound 384, 5-[2-(5-Trifluoromethoxy-quinoline-8-sulfonylamino)-phenylethynyl]-pyridine-2-carboxylic acid] | 10 to 100
25 | COc1ccccc1-c1cccc(S(=O)(=O)Nc2ccccc2C#Cc2ccc(C(=O)O)nc2)c1 [Compound 114, 5-[2-(2-{2′-methoxy-[1,1′-biphenyl]-3-sulfonamido}phenyl)ethynyl]pyridine-2-carboxylic acid] | 100 to 1000
26 | COc1cc(C(=O)OCC(O)CO)ncc1C#Cc1ccccc1NS(=O)(=O)c1c(C)ccc2cccnc12 (centres unmarked) [Compound 408, 2,3-dihydroxypropyl 4-methoxy-5-{2-[2-(7-methylquinoline-8-sulfonamido)phenyl]ethynyl}pyridine-2-carboxylate] | 10 to 100
27 | O=C(O)c1ccc(C#Cc2ccccc2NS(=O)(=O)C2=Cc3ccccc3CC2)cn1 [Compound 81, 5-{2-[2-(3,4-dihydronaphthalene-2-sulfonamido)phenyl]ethynyl}pyridine-2-carboxylic acid] | 100 to 1000
28 | CCOc1ccc(NS(=O)(=O)c2cccc3cccnc23)c(C#Cc2ccc(C(=O)O)nc2)c1 [Compound 329, 5-[5-Ethoxy-2-(quinoline-8-sulfonylamino)-phenylethynyl]-pyridine-2-carboxylic acid] | 100 to 1000
29 | O=C(O)c1ccc(C#Cc2ccccc2NS(=O)(=O)c2ccc(Br)c3ccccc23)cn1 [Compound 128, 5-{2-[2-(4-bromonaphthalene-1-sulfonamido)phenyl]ethynyl}pyridine-2-carboxylic acid] | 100 to 1000
30 | O=C(O)c1ccc(C#Cc2ccccc2NS(=O)(=O)c2cccc3scnc23)cn1 [Compound 109, 5-{2-[2-(1,3-benzothiazole-4-sulfonamido)phenyl]ethynyl}pyridine-2-carboxylic acid] | 100 to 1000
31 | COc1cc(C(=O)O)ncc1C#Cc1ccccc1NS(=O)(=O)c1c(C)cc(OC)c2cccnc12 [Compound 372, 4-Methoxy-5-[2-(5-methoxy-7-methyl-quinoline-8-sulfonylamino)-phenylethynyl]-pyridine-2-carboxylic acid] | 1 to 10
32 | CC(C)Nc1ccnc2c(S(=O)(=O)Nc3ccccc3C#Cc3ccc(C(=O)O)nc3)cccc12 [Compound 427, 5-[2-(4-Isopropylamino-quinoline-8-sulfonylamino)-phenylethynyl]-pyridine-2-carboxylic acid] | 1000 to 100000
33 | CS(=O)(=Nc1ccccc1C#Cc1ccc(C(=O)O)nc1)c1cccc(F)c1 (centres unmarked) [Compound 436, 5-[2-(2-{[(3-fluorophenyl)(methyl)oxo-λ6-sulfanylidene]amino}phenyl)ethynyl] pyridine-2-carboxylic acid] | 1000 to 100000
34 | COc1ccc(S(=O)(=O)Nc2ccccc2C#Cc2ccc(C(N)=O)nc2)c2ncccc12 [Compound 154, 5-{2-[2-(5-methoxyquinoline-8-sulfonamido)phenyl]ethynyl}pyridine-2-carboxamide] | 1000 to 100000
35 | CC(C)Oc1ccc(S(=O)(=O)Nc2ccccc2C#Cc2cnc(C(=O)O)c3ccccc23)c2ncccc12 [Compound 447, 4-(2-{2-[5-(propan-2-yloxy)quinoline-8-sulfonamido]phenyl}ethynyl)iso-quinoline-1-carboxylic acid] | 100 to 1000
36 | O=C(O)c1ccc(C#Cc2ccccc2NS(=O)(=O)c2cccc3ccccc23)cc1F [Compound 69, 2-fluoro-4-{2-[2-(naphthalene-1-sulfonamido)phenyl]ethynyl}benzoic acid] | 100 to 1000
37 | COc1ccc(S(=O)(=O)Nc2ccccc2C#Cc2cnc(C(=O)O)c3ccccc23)c(C)c1C [Compound 395, 4-[2-(4-Methoxy-2,3-dimethyl-benzenesulfonylamino)-phenylethynyl]-isoquinoline-1-carboxylic acid] | 100 to 1000

Same assay, conditions: Table 3; group class A-D; the table does not say which assay or cell line ("the assays described above")

Row | Structure (SMILES) | IC50 [nM]
38 | O=CN(Cc1ccc2ncccc2c1)c1ccccc1C#Cc1ccc(C(=O)O)nc1 [Compound 205, trifluoroacetate] | 1000 to 100000
